Data from the kinase profiling compilation of Christmann-Franck et al. (2016).

Experiments:
Assay in all cases: radiometric filter-binding kinase assay, Kinase HotSpot
Settings in all cases: compound 0.5 µM; ATP 10 µM
[1] = biological target: MAPK1 (human) (UniProt P28482)
[2] = biological target: PHKG1 (human) (UniProt Q16816)
[3] = biological target: GRK4 (human) (UniProt P32298)
[4] = biological target: RET (human) (UniProt P07949)
[5] = biological target: FGFR1 (human) (UniProt P11362)
[6] = biological target: WEE1 (human) (UniProt P30291)
[7] = biological target: CDK4 CCND1 (human) (UniProt P24385+P11802)
Sequence of CDK4 CCND1 (human) (P11802 whole entry, looked up): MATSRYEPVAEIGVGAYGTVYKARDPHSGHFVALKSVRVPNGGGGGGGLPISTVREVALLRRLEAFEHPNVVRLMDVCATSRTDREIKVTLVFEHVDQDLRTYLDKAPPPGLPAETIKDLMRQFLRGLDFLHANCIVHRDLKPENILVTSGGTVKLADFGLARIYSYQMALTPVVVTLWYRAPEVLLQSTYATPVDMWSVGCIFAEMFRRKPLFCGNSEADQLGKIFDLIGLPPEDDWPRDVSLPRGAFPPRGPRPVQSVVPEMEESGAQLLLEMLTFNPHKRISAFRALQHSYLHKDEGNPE
Sequence of CDK4 CCND1 (human) (P24385 whole entry, looked up): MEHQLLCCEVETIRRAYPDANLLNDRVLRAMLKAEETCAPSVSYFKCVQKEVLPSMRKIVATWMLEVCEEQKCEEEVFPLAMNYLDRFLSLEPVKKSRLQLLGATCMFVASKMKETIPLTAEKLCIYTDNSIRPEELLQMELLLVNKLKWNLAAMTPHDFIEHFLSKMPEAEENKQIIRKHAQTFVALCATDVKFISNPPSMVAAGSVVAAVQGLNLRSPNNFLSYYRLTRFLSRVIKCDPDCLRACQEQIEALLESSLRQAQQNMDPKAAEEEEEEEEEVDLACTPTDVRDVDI

[8] = biological target: LTK (human) (UniProt P29376)
[9] = biological target: ULK2 (human) (UniProt Q8IYT8)
[10] = biological target: MKNK2 (human) (UniProt Q9HBH9)
Sequence of MKNK2 (human) (Q9HBH9 whole entry, looked up): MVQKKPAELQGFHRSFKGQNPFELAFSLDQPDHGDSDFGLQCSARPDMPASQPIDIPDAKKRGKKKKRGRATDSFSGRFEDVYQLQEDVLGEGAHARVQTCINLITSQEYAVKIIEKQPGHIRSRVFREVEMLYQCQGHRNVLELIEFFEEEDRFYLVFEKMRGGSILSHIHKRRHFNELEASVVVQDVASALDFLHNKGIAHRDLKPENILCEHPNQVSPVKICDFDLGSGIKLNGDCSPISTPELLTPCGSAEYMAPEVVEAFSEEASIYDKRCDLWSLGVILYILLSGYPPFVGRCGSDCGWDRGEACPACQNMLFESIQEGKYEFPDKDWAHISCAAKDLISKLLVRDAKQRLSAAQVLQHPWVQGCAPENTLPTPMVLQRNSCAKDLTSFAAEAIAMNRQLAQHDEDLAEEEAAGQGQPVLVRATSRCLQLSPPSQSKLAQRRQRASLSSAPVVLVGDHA

[11] = biological target: CSNK2A1 (human) (UniProt P68400)
[12] = biological target: TAOK1 (human) (UniProt Q7L7X3)
[13] = biological target: ABL1 (human) (UniProt P00519)
[14] = biological target: AURKA (human) (UniProt O14965)
[15] = biological target: DDR2 (human) (UniProt Q16832)
[16] = biological target: MAPKAPK2 (human) (UniProt P49137)
[17] = biological target: IKBKB (human) (UniProt O14920)
[18] = biological target: PRKCD (human) (UniProt Q05655)
[19] = biological target: TAOK2 (human) (UniProt Q9UL54)
[20] = biological target: CAMK2B (human) (UniProt Q13554)
[21] = biological target: MLTK (human) (UniProt Q9NYL2)
Sequence of MLTK (human) (Q9NYL2 whole entry, looked up): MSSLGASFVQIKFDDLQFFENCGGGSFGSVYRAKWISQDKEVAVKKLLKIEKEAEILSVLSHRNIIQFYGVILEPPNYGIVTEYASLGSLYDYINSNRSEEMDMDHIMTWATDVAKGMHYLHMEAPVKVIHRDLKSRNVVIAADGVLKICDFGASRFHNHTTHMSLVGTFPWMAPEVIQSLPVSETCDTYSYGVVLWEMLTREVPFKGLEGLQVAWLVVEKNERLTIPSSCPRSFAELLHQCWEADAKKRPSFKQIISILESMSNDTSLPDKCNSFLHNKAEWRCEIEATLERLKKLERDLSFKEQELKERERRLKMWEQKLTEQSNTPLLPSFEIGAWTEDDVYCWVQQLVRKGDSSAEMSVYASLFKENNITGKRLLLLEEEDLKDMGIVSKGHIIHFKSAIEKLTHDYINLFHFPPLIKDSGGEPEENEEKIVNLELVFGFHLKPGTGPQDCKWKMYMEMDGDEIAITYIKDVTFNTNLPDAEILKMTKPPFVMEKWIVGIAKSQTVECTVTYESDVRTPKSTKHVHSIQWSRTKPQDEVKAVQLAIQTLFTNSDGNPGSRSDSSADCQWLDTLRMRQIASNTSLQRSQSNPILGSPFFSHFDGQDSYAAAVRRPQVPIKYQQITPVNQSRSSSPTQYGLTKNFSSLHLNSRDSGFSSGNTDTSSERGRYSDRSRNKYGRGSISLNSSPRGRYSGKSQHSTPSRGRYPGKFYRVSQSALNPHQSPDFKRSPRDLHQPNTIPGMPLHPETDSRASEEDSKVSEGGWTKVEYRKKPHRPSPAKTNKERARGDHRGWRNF

[22] = biological target: STK17A (human) (UniProt Q9UEE5)
[23] = biological target: BRSK2 (human) (UniProt Q8IWQ3)
[24] = biological target: STK24 (human) (UniProt Q9Y6E0)
[25] = biological target: DCLK2 (human) (UniProt Q8N568)
[26] = biological target: CDK3 CCNE1 (human) (UniProt Q00526+P24864)
[27] = biological target: NEK4 (human) (UniProt P51957)
[28] = biological target: RPS6KA2 KD1 KD2 (human) (UniProt Q15349)
[29] = biological target: RPS6KA4 KD2 (human) (UniProt O75676)
[30] = biological target: EPHB3 (human) (UniProt P54753)
[31] = biological target: TXK (human) (UniProt P42681)
[32] = biological target: MAPK14 (human) (UniProt Q16539)
Sequence of MAPK14 (human) (Q16539 whole entry, looked up): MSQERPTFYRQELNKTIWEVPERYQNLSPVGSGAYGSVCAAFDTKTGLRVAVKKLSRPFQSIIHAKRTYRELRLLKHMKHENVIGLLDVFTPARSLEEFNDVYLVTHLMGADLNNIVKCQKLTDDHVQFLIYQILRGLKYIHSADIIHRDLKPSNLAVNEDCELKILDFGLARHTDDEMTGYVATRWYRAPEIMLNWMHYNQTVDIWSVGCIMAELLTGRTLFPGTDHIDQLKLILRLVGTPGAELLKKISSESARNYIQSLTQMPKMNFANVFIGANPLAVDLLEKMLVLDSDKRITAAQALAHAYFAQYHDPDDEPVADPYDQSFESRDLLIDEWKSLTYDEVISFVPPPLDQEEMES

[33] = biological target: TYRO3 (human) (UniProt Q06418)
[34] = biological target: RPS6KA6 KD1 KD2 (human) (UniProt Q9UK32)
Sequence of RPS6KA6 KD1 KD2 (human) (Q9UK32 whole entry, looked up): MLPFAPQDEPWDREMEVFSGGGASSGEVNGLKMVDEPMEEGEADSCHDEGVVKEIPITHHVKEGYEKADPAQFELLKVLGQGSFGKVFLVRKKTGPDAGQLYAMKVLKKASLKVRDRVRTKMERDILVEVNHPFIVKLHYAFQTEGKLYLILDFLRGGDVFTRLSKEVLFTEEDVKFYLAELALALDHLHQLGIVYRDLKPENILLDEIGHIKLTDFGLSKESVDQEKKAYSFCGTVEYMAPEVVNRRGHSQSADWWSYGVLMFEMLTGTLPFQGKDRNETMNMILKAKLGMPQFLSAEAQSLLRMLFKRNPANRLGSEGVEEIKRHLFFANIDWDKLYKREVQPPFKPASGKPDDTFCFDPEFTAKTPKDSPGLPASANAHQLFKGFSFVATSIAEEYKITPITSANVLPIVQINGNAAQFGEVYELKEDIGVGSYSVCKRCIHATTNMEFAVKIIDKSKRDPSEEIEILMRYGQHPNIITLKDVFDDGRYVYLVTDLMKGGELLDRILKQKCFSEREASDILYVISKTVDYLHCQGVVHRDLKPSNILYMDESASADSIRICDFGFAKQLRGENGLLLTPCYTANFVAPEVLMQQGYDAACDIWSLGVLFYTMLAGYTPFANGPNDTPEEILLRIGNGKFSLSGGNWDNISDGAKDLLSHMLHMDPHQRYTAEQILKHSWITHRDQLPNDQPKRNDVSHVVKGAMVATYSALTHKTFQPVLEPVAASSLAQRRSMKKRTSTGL

[35] = biological target: RPS6KA1 KD1 KD2 (human) (UniProt Q15418)
[36] = biological target: RPS6KB2 (human) (UniProt Q9UBS0)
[37] = biological target: YES1 (human) (UniProt P07947)
[38] = biological target: PRKCH (human) (UniProt P24723)
Sequence of PRKCH (human) (P24723 whole entry, looked up): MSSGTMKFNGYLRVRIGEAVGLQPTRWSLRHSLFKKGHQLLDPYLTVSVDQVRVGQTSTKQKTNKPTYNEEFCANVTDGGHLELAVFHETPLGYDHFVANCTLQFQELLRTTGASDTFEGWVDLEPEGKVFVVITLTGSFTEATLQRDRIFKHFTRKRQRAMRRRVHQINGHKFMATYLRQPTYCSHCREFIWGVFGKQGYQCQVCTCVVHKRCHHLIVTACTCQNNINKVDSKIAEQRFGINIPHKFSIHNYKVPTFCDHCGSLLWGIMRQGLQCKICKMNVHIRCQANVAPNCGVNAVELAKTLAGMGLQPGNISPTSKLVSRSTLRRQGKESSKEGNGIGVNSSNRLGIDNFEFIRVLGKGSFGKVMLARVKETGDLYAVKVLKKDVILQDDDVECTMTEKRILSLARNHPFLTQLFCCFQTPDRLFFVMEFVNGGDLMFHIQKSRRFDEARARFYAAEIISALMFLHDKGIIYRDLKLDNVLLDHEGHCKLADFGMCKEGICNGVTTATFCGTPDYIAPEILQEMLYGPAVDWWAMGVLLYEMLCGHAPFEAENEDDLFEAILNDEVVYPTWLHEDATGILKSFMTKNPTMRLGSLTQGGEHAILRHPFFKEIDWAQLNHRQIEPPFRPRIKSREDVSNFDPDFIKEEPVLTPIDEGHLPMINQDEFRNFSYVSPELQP

[39] = biological target: CLK3 (human) (UniProt P49761)
[40] = biological target: MAPKAPK5 (human) (UniProt Q8IW41)
[41] = biological target: NTRK3 (human) (UniProt Q16288)
[42] = biological target: BLK (human) (UniProt P51451)

Sequence of MAPK1 (human) (P28482 whole entry, looked up): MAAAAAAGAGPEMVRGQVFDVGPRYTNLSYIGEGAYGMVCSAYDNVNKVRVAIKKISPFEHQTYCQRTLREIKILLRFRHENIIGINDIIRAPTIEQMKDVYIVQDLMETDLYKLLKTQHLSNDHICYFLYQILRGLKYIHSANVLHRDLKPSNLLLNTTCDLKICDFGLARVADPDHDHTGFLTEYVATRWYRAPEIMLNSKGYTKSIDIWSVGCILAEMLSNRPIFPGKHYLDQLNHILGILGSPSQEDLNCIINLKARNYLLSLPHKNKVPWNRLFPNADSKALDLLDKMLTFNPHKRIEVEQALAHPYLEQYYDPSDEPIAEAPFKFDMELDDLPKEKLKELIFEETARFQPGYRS
Sequence of GRK4 (human) (P32298 whole entry, looked up): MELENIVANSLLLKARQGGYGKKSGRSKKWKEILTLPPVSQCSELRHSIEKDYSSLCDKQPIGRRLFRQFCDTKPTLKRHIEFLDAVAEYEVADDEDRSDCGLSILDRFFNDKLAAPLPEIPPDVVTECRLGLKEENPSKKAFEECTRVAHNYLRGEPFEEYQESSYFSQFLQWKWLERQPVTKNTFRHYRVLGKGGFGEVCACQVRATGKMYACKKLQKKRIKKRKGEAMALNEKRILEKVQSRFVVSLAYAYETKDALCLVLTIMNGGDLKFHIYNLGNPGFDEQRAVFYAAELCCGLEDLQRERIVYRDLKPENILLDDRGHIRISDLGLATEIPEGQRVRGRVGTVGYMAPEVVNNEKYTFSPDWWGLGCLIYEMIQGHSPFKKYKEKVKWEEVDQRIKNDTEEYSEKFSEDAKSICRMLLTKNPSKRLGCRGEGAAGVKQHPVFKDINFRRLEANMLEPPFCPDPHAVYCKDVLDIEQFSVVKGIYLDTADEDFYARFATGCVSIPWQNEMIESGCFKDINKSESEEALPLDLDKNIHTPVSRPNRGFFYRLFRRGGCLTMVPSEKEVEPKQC
Sequence of PHKG1 (human) (Q16816 whole entry, looked up): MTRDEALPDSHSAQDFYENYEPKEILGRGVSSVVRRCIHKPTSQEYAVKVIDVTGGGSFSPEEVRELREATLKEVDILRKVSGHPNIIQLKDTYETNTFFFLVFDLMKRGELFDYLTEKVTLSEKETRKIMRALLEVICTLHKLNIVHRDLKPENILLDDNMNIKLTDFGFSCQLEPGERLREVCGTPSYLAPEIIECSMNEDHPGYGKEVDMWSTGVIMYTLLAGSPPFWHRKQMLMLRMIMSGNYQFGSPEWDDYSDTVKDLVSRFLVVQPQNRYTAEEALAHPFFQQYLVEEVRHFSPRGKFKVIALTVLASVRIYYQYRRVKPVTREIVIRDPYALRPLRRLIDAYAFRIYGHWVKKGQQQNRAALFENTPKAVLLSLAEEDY

`COc1ccc(CNC(=O)Nc2ncc([N+](=O)[O-])s2)cc1` was tested, and the residual activity [1] was 104%, the residual activity [2] was 101% and the residual activity [3] was 92.1%. For the same compound, the residual activity [4] was 97.9%, the residual activity [5] was 98.9% and the residual activity [6] was 95.2%. It also gave a residual activity [7] of 97.3%, a residual activity [8] of 101% and a residual activity [9] of 93.4%. The residual activity [10] was 95.7%, the residual activity [11] was 94.2% and the residual activity [12] was 101%. For the same compound, the residual activity [13] was 96.8%, the residual activity [14] was 97.4% and the residual activity [15] was 100%. It also gave a residual activity [16] of 112%, a residual activity [17] of 94.9% and a residual activity [18] of 100%. The residual activity [19] was 98.5%, the residual activity [20] was 103% and the residual activity [21] was 101%. It also gave a residual activity [22] of 91.6%, a residual activity [23] of 93.1% and a residual activity [24] of 93.6%. For the same compound, the residual activity [25] was 99.2%, the residual activity [26] was 94.8% and the residual activity [27] was 91%. The residual activity [28] was 100%, the residual activity [29] was 101% and the residual activity [30] was 101%. For the same compound, the residual activity [31] was 96.9%, the residual activity [32] was 104% and the residual activity [33] was 100%. It also gave a residual activity [34] of 99.8%, a residual activity [35] of 96.4% and a residual activity [36] of 93.6%. For the same compound, the residual activity [37] was 96.1%, the residual activity [38] was 64.1% and the residual activity [39] was 93%. The residual activity [40] was 90.1% and the residual activity [41] was 98.7%.
Work on `COc1cc2ncc(-c3ccccc3)nc2cc1OC` yielded a residual activity [1] of 95.6%, a residual activity [2] of 92.4% and a residual activity [3] of 97.8%. The residual activity [4] was 84.4%, the residual activity [5] was 92.9% and the residual activity [6] was 82.8%. It also gave a residual activity [7] of 103%, a residual activity [8] of 97.9% and a residual activity [9] of 113%. For the same compound, the residual activity [10] was 86.3%, the residual activity [12] was 104% and the residual activity [13] was 94.1%. It also gave a residual activity [14] of 90.3%, a residual activity [15] of 96.9% and a residual activity [16] of 85.9%. The residual activity [17] was 101%, the residual activity [18] was 82.2% and the residual activity [19] was 95.9%. For the same compound, the residual activity [20] was 93.3%, the residual activity [21] was 94.7% and the residual activity [22] was 95.5%. The residual activity [23] was 103%, the residual activity [24] was 104% and the residual activity [25] was 96%. For the same compound, the residual activity [26] was 83.8%, the residual activity [27] was 101% and the residual activity [28] was 85.4%. It also gave a residual activity [29] of 85.4%, a residual activity [30] of 88.6% and a residual activity [31] of 93.4%. The residual activity [32] was 122%, the residual activity [33] was 100% and the residual activity [34] was 98.5%. It also gave a residual activity [35] of 88.4%, a residual activity [36] of 104% and a residual activity [37] of 96.1%. For the same compound, the residual activity [38] was 107%, the residual activity [39] was 90.1% and the residual activity [42] was 103%. The residual activity [40] was 88.1% and the residual activity [41] was 89.1%.
